We go through six compounds from PubChem BioAssay AID1963866 (Molecular Pharmacology Branch, DTP, NCI, 2024).

The subject of this test is PDC KRAS tumor spheroids with HUVEC/MSC, viability. The experiment in a line: Anticancer human tumor 349418-098-R-PDC patient-derived lung adenocarcinoma cell line growth inhibition [KRAS2]. Particulars: for viability, T/C: stronger effect = lower value. The source says:
Multicellular complex tumor spheroid response to RAS pathway inhibitors in combination with a targeted agents in patient-derived cell lines with oncogenic KRAS variants from multiple cancer types
A high-throughput screen of multi-cell type tumor spheroids was designed to identify active combinations of targeted small molecules and KRAS pathway inhibitors. Complex spheroids include a stromal component modeled by human endothelial cells (HUVEC) and fibroblasts modeled by human mesenchymal stem cells (MSCs). The concentration ranges selected for each drug and investigational agent were based upon clinically achievable concentrations if the clinical Cmax of the agent was known.
Compounds. The drugs and investigational agents: BI-3406 (NSC825286), BAY-293 (NSC824723), batoprotafib (TNO155; NSC825523), sotorasib (AMG 510; NSC818433), MRTX1257 (NSC819558), elimusertib (BAY 1895344; NSC800525), molibresib (GSK525762; NSC774829), temuterkib (LY3214996; NSC803410), venetoclax (NSC766270), alisertib (NSC759677), olaparib (NSC753686), talazoparib (NSC767125), erdafitinib (NSC781556), ipatasertib (NSC767898), cabozantinib (NSC761068), nintedanib (NSC756659), abemaciclib (NSC768073), docetaxel (NSC628503), trametinib (NSC758246), and sapanisertib (NSC764658) were obtained from the National Cancer Institute (NCI) Developmental Therapeutics Program Chemical Repository. The FDA-approved anticancer drug set is available from the Developmental Therapeutics Program. […] The stock solutions were prepared in dimethyl sulfoxide (DMSO, Sigma-Aldrich, St. Louis, MO, cat. D2650) at 800-fold the tested concentration and stored at -70 degrees C prior to their use. All drugs and investigational agents were tested over a range starting from a high concentration at or near the clinical Cmax and decreasing in half-log increments. If the clinical Cmax for an agent had not been determined, the highest concentration tested was 10 microM.
Cell Culture. All cells were maintained in an incubator at 37 degrees C and 5% CO2 with 95% humidity. The PDC lines were cultured according to standard operating procedures established by the NCI PDMR (https://pdmr.cancer.gov/sops/default.htm). Briefly, all PDCs were thawed and cultured in Matrigel-coated flasks prepared with a working solution of 1X Ham's F-12 nutrient mix, without supplementation (Invitrogen, Waltham, MA, cat. 11765054), 100 U/mL penicillin-streptomycin (Invitrogen, cat. 15140122), and 2.5% Matrigel (Corning Inc., Corning, NY, cat. 354248) for the first three passages. All PDCs were cultured in complete DMEM/F-12 media containing advanced DMEM/F-12 (Invitrogen, cat. 12634028), 4.9% defined fetal bovine serum, heat inactivated (HyClone Laboratories Inc., Logan, UT, cat. SH30070.03HI), 389 ng/mL hydrocortisone (Sigma-Aldrich, cat. H4001), 9.7 ng/mL human EGF recombinant protein (Invitrogen, cat. PHG0313), 23.4 microg/mL adenine (Sigma-Aldrich, cat. A2786), 97.3 U/mL penicillin-streptomycin (Invitrogen, cat. 15140122), 1.9 mM L-glutamine (Invitrogen, cat. 25030081), and 9.7 microM Y-27632 dihydrochloride (Tocris Bioscience, Bristol, United Kingdom, cat. 1254). The PDCs were cultured in complete DMEM/F12 media without 9.7 microM Y-27632 dihydrochloride for at least two passages prior to the screen. The established cell line HOP-62 was cultured in RPMI 1640 medium, HEPES (Invitrogen, cat. 22400105) with 10% defined fetal bovine serum (HyClone Laboratories Inc., cat. SH30070.03) and 2 mM L-glutamine (Invitrogen, cat. 25030081). The pooled donor HUVEC were cultured in endothelial cell growth medium 2 (PromoCell, Heidelberg, Germany, cat. C-22011) and the hMSC were cultured in mesenchymal stem cell growth medium 2 (PromoCell, cat. C-28009). For all experiments, HUVEC and hMSC were used at passages </=5, while the malignant cell lines were used at passages </=15. […]

The mark [1] stands for this setting: compound alone, run of 07/19/2021.
The mark [2] stands for this setting: compound alone, run of 07/26/2021.
[3] abbreviates: curve of first compound, second compound 0.1 µM.
Where [4] appears, read: curve of first compound, second compound 0.316 µM.
Setting [5] is: curve of first compound, second compound 1 µM.
Where [6] appears, read: curve of first compound, second compound 3.16 µM.
[7] abbreviates: curve of first compound, second compound 10 µM.
[8] abbreviates: second compound 0.1 µM, first compound 0.01 µM.
The mark [9] stands for this setting: second compound 0.1 µM, first compound 0.0316 µM.
[10] abbreviates: second compound 0.1 µM, first compound 0.1 µM.
The mark [11] stands for this setting: second compound 0.316 µM, first compound 0.01 µM.
Setting [12] is: second compound 0.316 µM, first compound 0.0316 µM.
[13] abbreviates: second compound 0.316 µM, first compound 0.1 µM.
Setting [14] is: second compound 1 µM, first compound 0.01 µM.
The mark [15] stands for this setting: second compound 1 µM, first compound 0.0316 µM.
[16] abbreviates: second compound 1 µM, first compound 0.1 µM.
Where [17] appears, read: second compound 3.16 µM, first compound 0.01 µM.
Setting [18] is: second compound 3.16 µM, first compound 0.0316 µM.
The mark [19] stands for this setting: second compound 3.16 µM, first compound 0.1 µM.
[20] abbreviates: second compound 10 µM, first compound 0.01 µM.
Where [21] appears, read: second compound 10 µM, first compound 0.0316 µM.
Where [22] appears, read: second compound 10 µM, first compound 0.1 µM.
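Further: spheroids exposed to compounds for seven days before readout.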

Take `C=CC(=O)N1CCN(c2nc(=O)n(-c3c(C)ccnc3C(C)C)c3nc(-c4c(O)cccc4F)c(F)cc23)C(C)C1` (stereo not given): the viability, T/C (usually the ratio of treated to control) (compound 10 µM) was 37.2% [middle of 17 runs]. For the same compound, the IC50 – broadly, the concentration that inhibits the measured activity by half – was 5.54 µM [middle of 5 runs] under setting [1] and 6.3 µM [middle of 6 runs] under setting [2].

On to `C=CC(=O)N1CCN(c2nc(OCC3CCCN3C)nc3c2CCN(c2cccc4cccc(C)c24)C3)CC1CC#N` (stereo not given), for which the concentration for half-maximal inhibition (IC50) was 1.47 µM [middle of 5 runs] under setting [1] and 1.33 µM [middle of 5 runs] under setting [2].

Consider `CNCc1ccccc1-c1csc(C(C)Nc2nc(C)nc3cc(OC)c(OC)cc23)c1` (stereo not given), for which the viability, T/C (compound 10 µM) was 0.1% [middle of 12 runs]. In addition, the IC50 under setting [1] is 1.6 µM [middle of 5 runs] and the concentration for half-maximal inhibition (IC50) under setting [2] is 1.09 µM [middle of 6 runs].

Take `COC(=O)c1ccc2c(C(=Nc3ccc(N(C)C(=O)CN4CCN(C)CC4)cc3)c3ccccc3)c(O)[nH]c2c1`: the viability, T/C reads like this: (compound 3.16 µM) 24.1% [middle of 5 runs]; (compound 10 µM) 16.1% [middle of 5 runs].

Regarding `CC(=O)OC12COC1CC(O)C1(C)C(=O)C(O)C3=C(C)C(OC(=O)C(O)C(NC(=O)OC(C)(C)C)c4ccccc4)CC(O)(C(OC(=O)c4ccccc4)C21)C3(C)C` (stereo not given) + C=CC(=O)N1CCN(c2nc(=O)n(-c3c(C)ccnc3C(C)C)c3nc(-c4c(O)cccc4F)c(F)cc23)C(C)C1, the concentration for half-maximal inhibition (IC50) under setting [3] was under 10 nM; the IC50 under setting [4] is under 10 nM; the half-inhibitory concentration (IC50) under setting [5] was under 10 nM; the IC50 under setting [6] was under 10 nM; the 50% inhibitory concentration (IC50) under setting [7] is under 10 nM. In addition, the viability, T/C was 11.3% under setting [8]; 12.3% under setting [9]; 16% under setting [10]; 14.9% (second compound 0.1 µM, first compound 0.316 µM); 24% (second compound 0.1 µM, first compound 1 µM); 21.2% (second compound 0.1 µM, first compound 3.16 µM). The viability, T/C by setting is: under setting [11], 10.2%; under setting [12], 12.7%; under setting [13], 16.7%; (second compound 0.316 µM, first compound 0.316 µM) 17.9%; (second compound 0.316 µM, first compound 1 µM) 18%; (second compound 0.316 µM, first compound 3.16 µM) 20.1%. In addition, the viability, T/C reads like this: under setting [14], 11.1%; under setting [15], 14.2%; under setting [16], 11.6%; (second compound 1 µM, first compound 0.316 µM) 14.8%; (second compound 1 µM, first compound 1 µM) 20.5%; (second compound 1 µM, first compound 3.16 µM) 18.3%. Further, the viability, T/C by setting is: under setting [17], 9.17%; under setting [18], 13.1%; under setting [19], 13.4%; (second compound 3.16 µM, first compound 0.316 µM) 12.6%; (second compound 3.16 µM, first compound 1 µM) 15.5%; (second compound 3.16 µM, first compound 3.16 µM) 15.9%. Also, the viability, T/C runs as follows: under setting [20], 9.5%; under setting [21], 11%; under setting [22], 9.81%; (second compound 10 µM, first compound 0.316 µM) 9.76%; (second compound 10 µM, first compound 1 µM) 11.7%; (second compound 10 µM, first compound 3.16 µM) 11.9%.

In the case of `CN(C)C/C=C/C(=O)Nc1cc2c(Nc3ccc(F)c(Cl)c3)ncnc2cc1O[C@H]1CCOC1` + C=CC(=O)N1CCN(c2nc(=O)n(-c3c(C)ccnc3C(C)C)c3nc(-c4c(O)cccc4F)c(F)cc23)C(C)C1, the IC50 is over 100 nM under setting [3]; over 100 nM under setting [4]; over 100 nM under setting [5]; over 100 nM under setting [6]; under 0.316 nM under setting [7]. Further, the viability, T/C is 104% (second compound 0.1 µM, first compound 0.000316 µM); 97.8% (second compound 0.1 µM, first compound 0.001 µM); 98.7% (second compound 0.1 µM, first compound 0.00316 µM); 83.3% under setting [8]; 99.1% under setting [9]; 94% under setting [10]. The viability, T/C was 96.6% (second compound 0.316 µM, first compound 0.000316 µM); 106% (second compound 0.316 µM, first compound 0.001 µM); 95.1% (second compound 0.316 µM, first compound 0.00316 µM); 91.7% under setting [11]; 100% under setting [12]; 87.5% under setting [13]. The viability, T/C by setting is: (second compound 1 µM, first compound 0.000316 µM) 90.6%; (second compound 1 µM, first compound 0.001 µM) 85.6%; (second compound 1 µM, first compound 0.00316 µM) 81%; under setting [14], 95.3%; under setting [15], 80.5%; under setting [16], 78.2%. The viability, T/C is 78% (second compound 3.16 µM, first compound 0.000316 µM); 68.4% (second compound 3.16 µM, first compound 0.001 µM); 83.8% (second compound 3.16 µM, first compound 0.00316 µM); 59.5% under setting [17]; 55.2% under setting [18]; 64.9% under setting [19]. Also, the viability, T/C was 40.9% (second compound 10 µM, first compound 0.000316 µM); 40.2% (second compound 10 µM, first compound 0.001 µM); 35.9% (second compound 10 µM, first compound 0.00316 µM); 32.3% under setting [20]; 27.5% under setting [21]; 32.6% under setting [22].
